# How the values were obtained:
# [1] = tested on: Candida albicans; assay: Antimicrobial activity against Candida albicans assessed as inhibition zone at 200 ug/disk after 24 hrs by disc-diffusion method; assay type: functional; conditions: read-out: IZ
# [2] = tested on: HT-29; assay: Growth inhibition of human HT-29 cells at 10 uM after 48 hrs; assay type: functional; conditions: HT-29, 48 h, read-out: GI
# [3] = Growth inhibition of human HCT116 cells at 10 uM after 48 hrs; assay type: functional; conditions: HCT-116, 48 h, read-out: GI
# [4] = Growth inhibition of human HOP92 cells at 10 uM after 48 hrs; assay type: functional; conditions: HOP-92, 48 h, read-out: GI
# [5] = Growth inhibition of human MOLT4 cells at 10 uM after 48 hrs; assay type: functional; conditions: MOLT-4, 48 h, read-out: GI
# [6] = Growth inhibition of human UACC257 cells at 10 uM after 48 hrs; assay type: functional; conditions: UACC-257, 48 h, read-out: GI
# [7] = Growth inhibition of human RXF393 cells at 10 uM after 48 hrs; assay type: functional; conditions: RXF 393, 48 h, read-out: GI
# [8] = tested on: CAKI-1; assay: Growth inhibition of human CAKI-1 cells at 10 uM after 48 hrs; assay type: functional; conditions: CAKI-1, 48 h, read-out: GI
# [9] = Growth inhibition of human NCI-ADR-RES cells at 10 uM after 48 hrs; assay type: functional; conditions: read-out: GI
# [10] = tested on: 786-0; assay: Growth inhibition of human 786-0 cells at 10 uM after 48 hrs; assay type: functional; conditions: 786-0, 48 h, read-out: GI
# [11] = Growth inhibition of human SF295 cells at 10 uM after 48 hrs; assay type: functional; conditions: SF-295, 48 h, read-out: GI
# [12] = tested on: Bacillus subtilis; assay: Antimicrobial activity against Bacillus subtilis assessed as inhibition zone at 200 ug/disk after 24 hrs by disc-diffusion method; assay type: functional; conditions: read-out: IZ
# [13] = tested on: M14; assay: Growth inhibition of human M14 cells at 10 uM after 48 hrs; assay type: functional; conditions: M14, 48 h, read-out: GI
# [14] = tested on: U-251; assay: Growth inhibition of human U251 cells at 10 uM after 48 hrs; assay type: functional; conditions: U-251, 48 h, read-out: GI
# [15] = Growth inhibition of human OVCAR8 cells at 10 uM after 48 hrs; assay type: functional; conditions: OVCAR-8, 48 h, read-out: GI
# [16] = Growth inhibition of human Hs 578T cells at 10 uM after 48 hrs; assay type: functional; conditions: read-out: GI
# [17] = tested on: K562; assay: Growth inhibition of human K562 cells at 10 uM after 48 hrs; assay type: functional; conditions: K562, 48 h, read-out: GI
# [18] = tested on: SNB-19; assay: Growth inhibition of human SNB19 cells at 10 uM after 48 hrs; assay type: functional; conditions: SNB-19, 48 h, read-out: GI
# [19] = tested on: SK-MEL-5; assay: Growth inhibition of human SK-MEL-5 cells at 10 uM after 48 hrs; assay type: functional; conditions: SK-MEL-5, 48 h, read-out: GI
# [20] = Growth inhibition of human BT549 cells at 10 uM after 48 hrs; assay type: functional; conditions: BT-549, 48 h, read-out: GI
# [21] = tested on: A549; assay: Growth inhibition of human A549 cells at 10 uM after 48 hrs; assay type: functional; conditions: A549, 48 h, read-out: GI
# [22] = tested on: Escherichia coli; assay: Antimicrobial activity against Escherichia coli assessed as inhibition zone at 200 ug/disk after 24 hrs by disc-diffusion method; assay type: functional; conditions: read-out: IZ
# [23] = tested on: KM12; assay: Growth inhibition of human KM12 cells at 10 uM after 48 hrs; assay type: functional; conditions: KM12, 48 h, read-out: GI
# [24] = tested on: SR; assay: Growth inhibition of human SR cells at 10 uM after 48 hrs; assay type: functional; conditions: read-out: GI
# [25] = Growth inhibition of human UACC62 cells at 10 uM after 48 hrs; assay type: functional; conditions: UACC-62, 48 h, read-out: GI
# [26] = tested on: MDA-MB-231; assay: Growth inhibition of human MDA-MB-231 cells at 10 uM after 48 hrs; assay type: functional; conditions: MDA-MB-231, 48 h, read-out: GI
# [27] = tested on: A498; assay: Growth inhibition of human A498 cells at 10 uM after 48 hrs; assay type: functional; conditions: A498, 48 h, read-out: GI
# [28] = tested on: NCI-H23; assay: Growth inhibition of human NCI-H23 cells at 10 uM after 48 hrs; assay type: functional; conditions: NCI-H23, 48 h, read-out: GI
# [29] = tested on: SF-268; assay: Growth inhibition of human SF268 cells at 10 uM after 48 hrs; assay type: functional; conditions: SF-268, 48 h, read-out: GI
# [30] = tested on: T47D; assay: Growth inhibition of human T47D cells at 10 uM after 48 hrs; assay type: functional; conditions: read-out: GI
# [31] = Growth inhibition of human PC3 cells at 10 uM after 48 hrs; assay type: functional; conditions: PC-3, 48 h, read-out: GI
# [32] = target: T1, Dihydrofolate reductase (Bos taurus, UniProt P00376); assay: Inhibition of bovine liver DHFR
# T1 sequence (P00376 whole entry): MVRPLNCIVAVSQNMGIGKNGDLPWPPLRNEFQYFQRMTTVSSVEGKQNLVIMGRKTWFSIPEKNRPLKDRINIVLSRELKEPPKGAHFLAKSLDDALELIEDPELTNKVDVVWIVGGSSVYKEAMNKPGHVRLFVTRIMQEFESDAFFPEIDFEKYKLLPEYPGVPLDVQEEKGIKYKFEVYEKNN
# [33] = Growth inhibition of human LOXIMVI cells at 10 uM after 48 hrs; assay type: functional; conditions: LOX IMVI, read-out: GI
# [34] = tested on: Pseudomonas aeruginosa; assay: Antimicrobial activity against Pseudomonas aeruginosa assessed as inhibition zone at 200 ug/disk after 24 hrs by disc-diffusion method; assay type: functional; conditions: read-out: IZ
# [35] = tested on: Staphylococcus aureus; assay: Antimicrobial activity against Staphylococcus aureus assessed as inhibition zone at 200 ug/disk after 24 hrs by disc-diffusion method; assay type: functional; conditions: read-out: IZ
# [36] = tested on: SN12C; assay: Growth inhibition of human SN12C cells at 10 uM after 48 hrs; assay type: functional; conditions: read-out: GI
# [37] = Growth inhibition of human SF539 cells at 10 uM after 48 hrs; assay type: functional; conditions: SF-539, 48 h, read-out: GI
# [38] = Growth inhibition of human HCT15 cells at 10 uM after 48 hrs; assay type: functional; conditions: HCT-15, 48 h, read-out: GI
# [39] = Growth inhibition of human OVCAR5 cells at 10 uM after 48 hrs; assay type: functional; conditions: OVCAR-5, 48 h, read-out: GI
# [40] = Growth inhibition of human UO31 cells at 10 uM after 48 hrs; assay type: functional; conditions: UO-31, 48 h, read-out: GI
smiles,measurement,setting,value
Cc1ccc2nc(Sc3sc(N)nc3C)n(-c3ccc(Cl)cc3)c(=O)c2c1,zone of inhibition at 200 µg/disc,[1],8 mm
same,inhibition of growth at 10 µM,[2],11.7%
same,inhibition of growth at 10 µM,[3],22.8%
same,inhibition of growth at 10 µM,[4],43.3%
same,inhibition of growth at 10 µM,[5],19%
same,inhibition of growth at 10 µM,[6],13.6%
same,inhibition of growth at 10 µM,[7],28.5%
same,inhibition of growth at 10 µM,[8],11.2%
same,inhibition of growth at 10 µM,[9],17.5%
same,inhibition of growth at 10 µM,[10],29.3%
same,inhibition of growth at 10 µM,[11],18.2%
same,zone of inhibition at 200 µg/disc,[12],8 mm
same,inhibition of growth at 10 µM,[13],15.6%
same,inhibition of growth at 10 µM,[14],21.5%
same,inhibition of growth at 10 µM,[15],10.8%
same,inhibition of growth at 10 µM,[16],12.6%
same,inhibition of growth at 10 µM,[17],15.6%
same,inhibition of growth at 10 µM,[18],11.6%
same,inhibition of growth at 10 µM,[19],16.3%
same,inhibition of growth at 10 µM,[20],33.1%
same,inhibition of growth at 10 µM,[21],16.9%
same,zone of inhibition at 200 µg/disc,[22],8 mm
same,inhibition of growth at 10 µM,[23],24.6%
same,inhibition of growth at 10 µM,[24],49.2%
same,inhibition of growth at 10 µM,[25],26%
same,inhibition of growth at 10 µM,[26],13%
same,inhibition of growth at 10 µM,[27],53%
same,inhibition of growth at 10 µM,[28],10.1%
same,inhibition of growth at 10 µM,[29],13.2%
same,inhibition of growth at 10 µM,[30],12.4%
same,inhibition of growth at 10 µM,[31],28.6%
same,IC50,[32],7 µM
same,inhibition of growth at 10 µM,[33],16.5%
same,zone of inhibition at 200 µg/disc,[34],8 mm
same,zone of inhibition at 200 µg/disc,[35],8 mm
same,inhibition of growth at 10 µM,[36],12.8%
same,inhibition of growth at 10 µM,[37],13.9%
same,inhibition of growth at 10 µM,[38],27.7%
same,inhibition of growth at 10 µM,[39],12.1%
same,inhibition of growth at 10 µM,[40],46%

# — ChEMBL document CHEMBL3352542, “Synthesis, biological evaluation and molecular modeling study of 2-(1,3,4-thiadiazolyl-thio and 4-methyl-thiazolyl-thio)-quinazolin-4-ones as a new class of DHFR inhibitors” (Bioorg Med Chem Lett, 2014)
